ChEMBL document CHEMBL6120942 (J Med Chem, 2024)
≈ marks a conversion by molar mass, not a printed value. Calls of active or inactive are those of the source. No cut-off for these calls is given here.

Key:
[1] = Oral bioavailability in Gottingen minipig at 1 mg/kg measured upto 24 hrs by LC-MS/MS analysis; assay type: ADME, organism-based, Sus scrofa; settings: pig, in vivo
[2] = Half life in Gottingen minipig at 1 mg/kg, iv measured upto 24 hrs by LC-MS/MS analysis; assay type: ADME, organism-based, Sus scrofa; settings: pig, in vivo
[3] = Volume of distribution at steady state in male Wistar Han rat at 1 mg/kg, po or 1 mg/kg, iv measured upto 24 hrs by LC-MS/MS analysis; assay type: ADME, organism-based; settings: in vivo
[4] = Volume of distribution at steady state in Gottingen minipig at 1 mg/kg, po or 1 mg/kg, iv measured upto 24 hrs by LC-MS/MS analysis; assay type: ADME, organism-based, Sus scrofa; settings: pig, in vivo
[5] = Unbound clearance in male Wistar Han rat at 1 mg/kg, po or 1 mg/kg, iv measured upto 24 hrs by LC-MS/MS analysis; assay type: ADME, organism-based; settings: in vivo
in vitro = settings: dog, MDCK-MDR1, permeability
Description: (§1) Permeability across apical to basolateral side in dog MDCK-MDR1 cells measured for 60 mins by LC-MS/MS analysis

[6] = Unbound clearance in Gottingen minipig at 1 mg/kg, po or 1 mg/kg, iv measured upto 24 hrs by LC-MS/MS analysis; assay type: ADME, organism-based, Sus scrofa; settings: pig, in vivo
[7] = Kinetic solubility of compound; assay type: physicochemical; settings: read-out: Kinetic_solubility
physchem = settings: octanol/water, pH 7.4, logD
Description: (§2) Distribution coefficient, logD of compound at pH 7.4 by HPLC analysis

[8] = Metabolic stability in human microsome assessed as clearance measured upto 60 mins by LC-MS/MS analysis; assay type: ADME; settings: microsomes, 1 h
[9] = Oral bioavailability in male Wistar Han rat at 1 mg/kg measured upto 24 hrs by LC-MS/MS analysis; assay type: ADME, organism-based; settings: in vivo
[10] = Half life in male Wistar Han rat at 1 mg/kg, iv measured upto 24 hrs by LC-MS/MS analysis; assay type: ADME, organism-based; settings: in vivo
[11] = Permeability across apical to basolateral side in MDCK cells; assay type: ADME, cell-based, Canis lupus familiaris; settings: dog, read-out: permeability
Mus musculus [12] = assay: Antifibrotic activity against bleomycin-induced mouse model of pulmonary fibrosis at 2 to 15 mg/kg, po; assay type: functional, organism-based; settings: dose 2-15 mg/kg
[13] = Volume of distribution at steady state in male Beagle dog at 1 mg/kg, po or 1 mg/kg, iv measured upto 24 hrs by LC-MS/MS analysis; assay type: ADME, organism-based, Canis lupus familiaris; settings: in vivo
[14] = AUC in rat at 2 mg/kg, po; assay type: ADME, organism-based; settings: in vivo
[15] = Oral bioavailability in male Beagle dog at 1 mg/kg measured upto 24 hrs by LC-MS/MS analysis; assay type: ADME, organism-based, Canis lupus familiaris; settings: in vivo
[16] = Volume of distribution at steady state in male Wistar Han rat at 2 mg/kg, po measured upto 24 hrs by LC-MS/MS analysis; assay type: ADME, organism-based; settings: in vivo
[17] = Oral bioavailability in male Wistar Han rat at 2 mg/kg measured upto 24 hrs by LC-MS/MS analysis; assay type: ADME, organism-based; settings: in vivo
Mus musculus [18] = assay: Antifibrotic activity against bleomycin-induced mouse model of pulmonary fibrosis at 2 to 10 mg/kg, po; assay type: functional, organism-based; settings: dose 2-10 mg/kg
[19] = Half life in male Beagle dog at 1 mg/kg, iv measured upto 24 hrs by LC-MS/MS analysis; assay type: ADME, organism-based, Canis lupus familiaris; settings: in vivo
[20] = Unbound clearance in male Beagle dog at 1 mg/kg, po or 1 mg/kg, iv measured upto 24 hrs by LC-MS/MS analysis; assay type: ADME, organism-based, Canis lupus familiaris; settings: in vivo
Integrin alpha-V/beta-8 = Integrin alpha-V/beta-8 (Homo sapiens, UniProt P06756+P26012); assay: Binding affinity to Integrin alphaVbeta8 (unknown origin); assay type: protein-complex assay
Chain of Integrin alpha-V/beta-8 (P06756 31-889 limits assumed): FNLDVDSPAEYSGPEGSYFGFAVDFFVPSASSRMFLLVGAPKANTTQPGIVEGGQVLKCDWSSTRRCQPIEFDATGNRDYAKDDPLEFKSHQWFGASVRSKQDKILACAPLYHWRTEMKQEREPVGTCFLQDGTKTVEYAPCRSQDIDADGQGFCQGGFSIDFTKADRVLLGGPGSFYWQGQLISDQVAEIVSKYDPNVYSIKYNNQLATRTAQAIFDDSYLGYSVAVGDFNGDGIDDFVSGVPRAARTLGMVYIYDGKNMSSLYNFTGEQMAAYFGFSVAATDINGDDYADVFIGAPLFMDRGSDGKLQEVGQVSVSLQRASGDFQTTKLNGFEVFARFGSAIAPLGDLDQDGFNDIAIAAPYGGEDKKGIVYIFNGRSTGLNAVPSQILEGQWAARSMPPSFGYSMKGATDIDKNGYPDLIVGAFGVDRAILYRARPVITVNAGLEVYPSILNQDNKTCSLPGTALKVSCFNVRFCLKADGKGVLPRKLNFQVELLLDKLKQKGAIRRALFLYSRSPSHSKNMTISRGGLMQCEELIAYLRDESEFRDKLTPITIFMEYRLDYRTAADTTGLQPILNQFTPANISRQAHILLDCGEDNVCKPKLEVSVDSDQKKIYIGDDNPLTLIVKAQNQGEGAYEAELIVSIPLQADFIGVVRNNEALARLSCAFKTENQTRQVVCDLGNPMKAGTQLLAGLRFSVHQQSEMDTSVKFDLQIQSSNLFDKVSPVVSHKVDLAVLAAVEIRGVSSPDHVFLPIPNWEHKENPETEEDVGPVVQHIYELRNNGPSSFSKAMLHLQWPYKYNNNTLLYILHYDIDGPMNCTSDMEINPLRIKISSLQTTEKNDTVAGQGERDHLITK
Chain of Integrin alpha-V/beta-8 (P06756 891-1048 limits assumed): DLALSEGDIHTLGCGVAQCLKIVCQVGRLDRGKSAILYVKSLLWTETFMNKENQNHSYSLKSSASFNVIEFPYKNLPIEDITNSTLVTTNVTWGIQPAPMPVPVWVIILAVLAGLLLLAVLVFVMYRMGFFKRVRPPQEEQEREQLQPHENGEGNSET
Chain of Integrin alpha-V/beta-8 (P26012 43-769 limits assumed): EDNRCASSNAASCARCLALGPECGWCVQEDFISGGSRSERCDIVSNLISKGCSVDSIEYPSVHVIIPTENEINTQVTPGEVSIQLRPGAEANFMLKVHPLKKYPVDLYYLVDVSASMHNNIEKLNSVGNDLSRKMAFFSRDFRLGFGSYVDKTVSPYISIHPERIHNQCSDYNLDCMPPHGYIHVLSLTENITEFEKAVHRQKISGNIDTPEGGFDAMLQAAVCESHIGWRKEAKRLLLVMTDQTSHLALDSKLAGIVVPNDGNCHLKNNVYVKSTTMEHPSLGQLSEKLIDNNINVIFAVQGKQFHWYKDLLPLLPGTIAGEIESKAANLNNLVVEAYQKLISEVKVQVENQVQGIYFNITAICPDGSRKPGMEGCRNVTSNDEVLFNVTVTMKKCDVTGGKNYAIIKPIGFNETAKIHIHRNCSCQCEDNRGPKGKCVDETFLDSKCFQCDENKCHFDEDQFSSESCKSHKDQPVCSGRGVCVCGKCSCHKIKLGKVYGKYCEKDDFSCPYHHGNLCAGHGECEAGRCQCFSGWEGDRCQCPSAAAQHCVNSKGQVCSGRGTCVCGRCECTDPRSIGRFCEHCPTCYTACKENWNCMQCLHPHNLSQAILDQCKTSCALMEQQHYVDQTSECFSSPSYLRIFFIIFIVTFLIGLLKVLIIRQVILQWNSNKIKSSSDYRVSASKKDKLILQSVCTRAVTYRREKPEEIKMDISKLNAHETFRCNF

Integrin alpha-V/beta-6 = Integrin alpha-V/beta-6 (Homo sapiens, UniProt P06756+P18564); assay: Binding affinity to Integrin alphaVbeta6 (unknown origin); assay type: protein-complex assay
Chain of Integrin alpha-V/beta-6 (P06756 31-889 limits assumed): as the sequence (P06756 31-889 limits assumed) above
Chain of Integrin alpha-V/beta-6 (P06756 891-1048 limits assumed): as the sequence (P06756 891-1048 limits assumed) above
Chain of Integrin alpha-V/beta-6 (P18564 22-788 limits assumed): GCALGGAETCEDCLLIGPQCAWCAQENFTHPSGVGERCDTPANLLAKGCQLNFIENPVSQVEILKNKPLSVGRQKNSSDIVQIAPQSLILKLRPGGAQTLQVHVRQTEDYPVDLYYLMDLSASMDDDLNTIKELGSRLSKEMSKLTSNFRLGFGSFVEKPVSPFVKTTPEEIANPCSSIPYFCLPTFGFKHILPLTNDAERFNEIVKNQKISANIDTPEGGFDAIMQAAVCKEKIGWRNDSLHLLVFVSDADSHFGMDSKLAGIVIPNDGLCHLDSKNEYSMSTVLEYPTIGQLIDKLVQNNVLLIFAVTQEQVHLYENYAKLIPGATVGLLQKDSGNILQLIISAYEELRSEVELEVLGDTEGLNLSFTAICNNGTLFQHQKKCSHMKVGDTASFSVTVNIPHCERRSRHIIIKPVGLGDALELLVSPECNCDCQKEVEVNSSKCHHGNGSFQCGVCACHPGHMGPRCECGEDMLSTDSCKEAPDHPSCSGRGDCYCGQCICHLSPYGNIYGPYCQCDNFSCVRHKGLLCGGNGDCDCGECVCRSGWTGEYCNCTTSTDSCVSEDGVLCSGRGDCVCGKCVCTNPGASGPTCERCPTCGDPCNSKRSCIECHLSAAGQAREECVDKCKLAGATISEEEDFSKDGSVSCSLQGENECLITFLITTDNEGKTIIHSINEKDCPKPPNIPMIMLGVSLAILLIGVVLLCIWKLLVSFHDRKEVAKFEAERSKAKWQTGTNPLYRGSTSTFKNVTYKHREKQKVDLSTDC

[21] = Metabolic stability in Wistar rat Hepatocyte assessed as clearance measured upto 60 mins by LC-MS/MS analysis; assay type: ADME, cell-based; settings: hepatocytes, 1 h
[22] = Metabolic stability in Wistar rat liver Microsome assessed as clearance measured upto 60 mins by LC-MS/MS analysis; assay type: ADME; settings: microsomes, 1 h
Integrin alpha-V/beta-3 = Integrin alpha-V/beta-3 (Homo sapiens, UniProt P05106+P06756); assay: Binding affinity to Integrin alphaVbeta3 (unknown origin); assay type: protein-complex assay
[23] = Metabolic stability in human Hepatocyte assessed as clearance measured upto 60 mins by LC-MS/MS analysis; assay type: ADME, cell-based; settings: hepatocytes, 1 h
Integrin alpha-V/beta-5 = Integrin alpha-V/beta-5 (Homo sapiens, UniProt P06756+P18084); assay: Binding affinity to Integrin alphaVbeta5 (unknown origin); assay type: protein-complex assay
Chain of Integrin alpha-V/beta-5 (P06756 31-889 limits assumed): as the sequence (P06756 31-889 limits assumed) above
Chain of Integrin alpha-V/beta-5 (P06756 891-1048 limits assumed): as the sequence (P06756 891-1048 limits assumed) above
Chain of Integrin alpha-V/beta-5 (P18084 24-799 limits assumed): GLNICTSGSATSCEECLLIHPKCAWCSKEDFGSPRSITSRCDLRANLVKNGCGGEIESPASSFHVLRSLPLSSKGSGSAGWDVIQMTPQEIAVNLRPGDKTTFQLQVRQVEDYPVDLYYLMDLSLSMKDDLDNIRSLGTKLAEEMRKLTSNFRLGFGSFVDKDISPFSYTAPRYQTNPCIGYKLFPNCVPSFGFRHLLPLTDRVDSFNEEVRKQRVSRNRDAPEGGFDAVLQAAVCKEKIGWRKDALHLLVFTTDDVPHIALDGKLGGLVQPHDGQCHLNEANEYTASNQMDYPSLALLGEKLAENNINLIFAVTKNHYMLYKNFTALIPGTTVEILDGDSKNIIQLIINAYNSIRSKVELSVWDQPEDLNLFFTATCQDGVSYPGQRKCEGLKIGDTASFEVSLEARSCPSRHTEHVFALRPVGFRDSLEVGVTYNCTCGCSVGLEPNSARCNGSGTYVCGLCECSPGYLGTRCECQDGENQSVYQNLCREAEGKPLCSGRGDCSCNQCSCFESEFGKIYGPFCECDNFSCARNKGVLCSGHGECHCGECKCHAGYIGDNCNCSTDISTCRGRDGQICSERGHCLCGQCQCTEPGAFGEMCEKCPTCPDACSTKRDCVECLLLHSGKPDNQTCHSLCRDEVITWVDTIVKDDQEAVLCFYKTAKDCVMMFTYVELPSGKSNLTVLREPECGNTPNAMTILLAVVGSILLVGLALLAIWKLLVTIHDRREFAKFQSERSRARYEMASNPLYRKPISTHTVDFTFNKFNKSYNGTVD

[24] = dog, mdck-mdr1, 1 h
Description: as §1

[25] = octanol/water, pH 7.4
Description: as §2

[26] = target: T1, Voltage-gated inwardly rectifying potassium channel KCNH2 (Homo sapiens, UniProt Q12809); assay: Inhibition of hERG by Qpatch clamp assay; assay type: toxicity
T1 sequence (Q12809 whole entry): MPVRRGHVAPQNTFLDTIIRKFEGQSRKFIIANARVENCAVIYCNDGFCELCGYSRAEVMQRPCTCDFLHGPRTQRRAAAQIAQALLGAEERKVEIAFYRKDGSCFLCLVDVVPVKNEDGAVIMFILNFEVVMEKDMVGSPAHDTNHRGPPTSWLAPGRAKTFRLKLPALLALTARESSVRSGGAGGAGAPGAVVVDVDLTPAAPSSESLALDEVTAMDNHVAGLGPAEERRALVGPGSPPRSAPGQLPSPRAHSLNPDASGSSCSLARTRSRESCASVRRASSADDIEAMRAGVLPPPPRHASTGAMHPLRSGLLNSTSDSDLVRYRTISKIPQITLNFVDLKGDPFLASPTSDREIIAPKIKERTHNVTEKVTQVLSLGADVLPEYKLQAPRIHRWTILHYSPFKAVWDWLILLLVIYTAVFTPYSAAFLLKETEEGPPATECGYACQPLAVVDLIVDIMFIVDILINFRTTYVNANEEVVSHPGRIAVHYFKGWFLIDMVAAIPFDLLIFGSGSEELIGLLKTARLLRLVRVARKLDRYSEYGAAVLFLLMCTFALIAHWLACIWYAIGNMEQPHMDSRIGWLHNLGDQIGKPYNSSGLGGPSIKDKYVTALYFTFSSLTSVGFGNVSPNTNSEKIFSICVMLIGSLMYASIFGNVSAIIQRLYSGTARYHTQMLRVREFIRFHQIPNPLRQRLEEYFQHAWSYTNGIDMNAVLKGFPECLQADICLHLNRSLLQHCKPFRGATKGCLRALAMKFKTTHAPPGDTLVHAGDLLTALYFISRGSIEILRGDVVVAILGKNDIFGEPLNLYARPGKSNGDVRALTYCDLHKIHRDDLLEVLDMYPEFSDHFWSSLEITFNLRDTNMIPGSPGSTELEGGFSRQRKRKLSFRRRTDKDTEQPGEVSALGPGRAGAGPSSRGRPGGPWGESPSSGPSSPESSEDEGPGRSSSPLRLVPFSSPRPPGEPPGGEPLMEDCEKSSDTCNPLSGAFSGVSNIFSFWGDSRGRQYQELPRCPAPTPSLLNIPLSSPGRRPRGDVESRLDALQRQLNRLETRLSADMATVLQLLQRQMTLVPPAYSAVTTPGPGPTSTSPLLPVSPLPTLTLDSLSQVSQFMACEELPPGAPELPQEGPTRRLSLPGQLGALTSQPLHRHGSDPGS

[27] = target: T1, Voltage-gated inwardly rectifying potassium channel KCNH2; assay: Inhibition of hERG by patch clamp assay; assay type: toxicity
Integrin alpha-V/beta-1 = Integrin alpha-V/beta-1 (Homo sapiens, UniProt P05556+P06756); assay: Binding affinity to Integrin alphaVbeta1 (unknown origin); assay type: protein-complex assay

| Structure (SMILES) | Vdss [3] [L/kg] | CL free [5] [mL/min/kg] | Papp A→B at 1 h (in vitro) [×10⁻⁶ cm/s] | solubility kinetic [7] [µg/mL] | logD (physchem) | CLH [8] [mL/min/g] | bioavailability [9] [%] | half-life [10] [h] | Papp A→B [11] [×10⁻⁶ cm/s] | IC50 (Integrin alpha-V/beta-6) [µM] | further results |
| --- | --- | --- | --- | --- | --- | --- | --- | --- | --- | --- | --- |
| COCCOc1cccc([C@H](CC(=O)O)CN2CC[C@@](F)(CCc3ccc4c(n3)NCCC4)C2)c1 | – | – | 14.6 | 127 (≈ 262 µM) | 2.93 | – | – | – | 8.7 | – | bioavailability [1]: 84%; Activity (Mus musculus [12]): Active; Vdss [4]: 0.9 L/kg; Vdss [13]: 1.4 L/kg; AUC [14]: 779 ng·h/mL; bioavailability [15]: 104%; Vdss [16]: 3.6 L/kg; bioavailability [17]: 93%; Activity (Mus musculus [18]): Active |
| Cc1cc(C)n(-c2cccc([C@H](CC(=O)O)CN3CC[C@@H](CCc4ccc5c(n4)NCCC5)C3)c2)n1.Cl [GSK-3008348] | 2.1 | 189 | – | – | – | – | < 2 | 0.8 | – | – | Vdss [13]: 3.6 L/kg; half-life [19]: 3.6 h; bioavailability [15]: 30%; CL free [20]: 124 mL/min/kg |
| Cc1cc(C)n(-c2cccc([C@H](CC(=O)O)CN3CC[C@@](F)(CCc4ccc5c(n4)NCCC5)C3)c2)n1 | – | – | 33 | 262 (≈ 518 µM) | 3.3 | < 0.53 | – | – | 17.7 | 0.01 | IC50 (Integrin alpha-V/beta-8): 0.02 µM; CLH [21]: 13.75 mL/min/g; CLH [22]: 0.91 mL/min/g; IC50 (Integrin alpha-V/beta-3): 0.316 µM; CLH [23]: < 0.86 mL/min/g; IC50 (Integrin alpha-V/beta-5): 0.2 µM |
| O=C(O)C[C@H](CN1CC(CCc2ccc3c(n2)NCCC3)CC(F)(F)C1)c1cccc(N2CCOCC2)c1 (stereo in doubt; 3b) | – | – | – | – | – | – | – | – | – | 0.0794 | permeability [24]: 56 ×10⁻⁶ cm/s; logD [25]: 4.33 |
| O=C(O)C[C@H](CN1CCCC(F)(CCc2ccc3c(n2)NCCC3)C1)c1cccc(N2CCOCC2)c1 (stereo in doubt; 4b) | – | – | – | – | – | – | – | – | – | 0.2 | permeability [24]: 38 ×10⁻⁶ cm/s |
| O=C(O)C[C@H](CN1CCC(F)(F)C(CCc2ccc3c(n2)NCCC3)C1)c1cccc(N2CCOCC2)c1 (stereo in doubt; 2b) | – | – | – | – | – | – | – | – | – | 0.501 | permeability [24]: 56 ×10⁻⁶ cm/s; logD [25]: 4.62 |
| O=C(O)C[C@H](CN1CC(CCc2ccc3c(n2)NCCC3)CC(F)(F)C1)c1cccc(N2CCOCC2)c1 (stereo in doubt; 3a) | – | – | 36 | – | 3.46 | – | – | – | – | 0.631 | – |
| O=C(O)C[C@H](CN1CC[C@@H](CCc2ccc3c(n2)NCCC3)C1)c1cccc(N2CCOCC2)c1 | – | – | 2.7 | – | 2.27 | – | – | – | – | – | – |
| O=C(O)C[C@H](CN1CCCC(F)(CCc2ccc3c(n2)NCCC3)C1)c1cccc(N2CCOCC2)c1 (stereo in doubt; 4a) | – | – | 21.6 | – | 2.68 | – | – | – | – | 0.0501 | – |
| O=C(O)C[C@H](CN1CCC(F)(F)C(CCc2ccc3c(n2)NCCC3)C1)c1cccc(N2CCOCC2)c1 (stereo in doubt; 2a) | – | – | 37 | – | 4.02 | – | – | – | – | 2 | – |

Second part, led by results:

| Vdss [3] [L/kg] | CL free [5] [mL/min/kg] | Papp A→B at 1 h (in vitro) [×10⁻⁶ cm/s] | solubility kinetic [7] [µg/mL] | logD (physchem) | CLH [8] [mL/min/g] | bioavailability [9] [%] | half-life [10] [h] | Papp A→B [11] [×10⁻⁶ cm/s] | IC50 (Integrin alpha-V/beta-6) [µM] | Structure (SMILES) | further results |
| --- | --- | --- | --- | --- | --- | --- | --- | --- | --- | --- | --- |
| 1.9 | 58 | 26 | 194 (≈ 390 µM) | 2.84 | < 0.4 | 61 | 2.8 | 7.6 | – | O=C(O)C[C@H](CN1CC[C@@](F)(CCc2ccc3c(n2)NCCC3)C1)c1cccc(O[C@H]2CCOC2)c1 | bioavailability [1]: 63%; half-life [2]: 3.4 h; Vdss [4]: 1.4 L/kg; CL free [6]: 26 mL/min/kg |
| 4.1 | 206 | 21.8 | 258 (≈ 520 µM) | 2.68 | < 0.46 | 77 | 1.9 | 8.7 | – | O=C(O)C[C@H](CN1CC[C@@](F)(CCc2ccc3c(n2)NCCC3)C1)c1cccc(N2CCOCC2)c1 | bioavailability [1]: 34%; CLH [21]: < 1.04 mL/min/g; half-life [2]: 3 h; IC50 [26]: > 10 µM; Vdss [4]: 2.5 L/kg; Vdss [13]: 2.5 L/kg; CL free [6]: 58 mL/min/kg; half-life [19]: 6.1 h; CLH [22]: < 0.49 mL/min/g; bioavailability [15]: 74%; IC50 [27]: > 10 µM; CLH [23]: < 0.62 mL/min/g; CL free [20]: 18 mL/min/kg |
| 3.3 | 88 | 20.5 | 232 (≈ 466 µM) | 2.76 | < 0.4 | 90 | 3.1 | 7.8 | – | O=C(O)C[C@H](CN1CC[C@@](F)(CCc2ccc3c(n2)NCCC3)C1)c1cccc(O[C@@H]2CCOC2)c1 | bioavailability [1]: 66%; CLH [21]: 1.4 mL/min/g; half-life [2]: 1.7 h; Vdss [4]: 1.5 L/kg; CL free [6]: 34 mL/min/kg; CLH [22]: < 0.46 mL/min/g; IC50 (Integrin alpha-V/beta-1): 0.158 µM; IC50 (Integrin alpha-V/beta-3): 0.0631 µM; CLH [23]: < 0.21 mL/min/g |
| – | – | 9.3 | – | 2.66 | – | – | – | – | – | O=C(O)C[C@H](CN1CC[C@](F)(CCc2ccc3c(n2)NCCC3)C1)c1cccc(N2CCOCC2)c1 | IC50 [26]: > 10 µM; IC50 [27]: > 10 µM |
| – | – | – | – | 2.89 | – | – | – | 1.9 | – | COCCOc1cccc([C@H](CC(=O)O)CN2CC[C@](F)(CCc3ccc4c(n3)NCCC4)C2)c1 | AUC [14]: 101 ng·h/mL |
| 4.9 | 182 | 17.2 | 209 (≈ 408 µM) | 3.18 | < 0.4 | 50 | 3.5 | 12.1 | – | O=C(O)C[C@H](CN1CC[C@@](F)(CCc2ccc3c(n2)NCCC3)C1)c1cccc(OC2CCOCC2)c1 | IC50 (Integrin alpha-V/beta-8): 0.0126 µM; CLH [21]: 1.6 mL/min/g; CLH [22]: < 0.46 mL/min/g; CLH [23]: < 0.21 mL/min/g; IC50 (Integrin alpha-V/beta-5): 0.0316 µM |
